This is an account of results in article PMC3990705, “A p38 Substrate-Specific MK2-EGFP Translocation Assay for Identification and Validation of New p38 Inhibitors in Living Cells: A Comprising Alternative for Acquisition of Cellular p38 Inhibition Data” (PLoS ONE, 2014).

Broadly, the pIC50 is −log10 of the IC50, conventionally taken in molar units.

pIC50: −log10 of the molar value. Where two headings read alike, the source gives them in different places.

The test system of series [1] is TNFα release in human whole blood. Briefly: Whole blood assay (WBA), TNFα release after LPS stimulation. The class given is cell-based. As to conditions: N = 3, read-out: WBA TNFα IC50 ± SD. The procedure: For determination of inhibitor potency of the compounds by detection of TNFα release in human whole blood an in vitro assay using human whole blood stimulated with LPS for TNFα synthesis is a reliable test system for inhibitors of cytokine synthesis, especially for p38 MAP kinase inhibitors as TNFα synthesis is mainly mediated by p38 MAP kinase. Therefore, the synthesis and release of proinflammatory cytokines in human whole blood from a healthy donor is stimulated using a LPS solution (1 µg/mL, Sigma-Aldrich, Germany) after preincubation of inhibitor dilution (as described in [26]). After 2.5 hours of incubation in a 5% CO2 incubator, the stimulation is stopped and plasma is obtained by centrifugation of the whole blood, followed by TNFα readout from the plasma using a commercially available TNFα ELISA kit (R&D Systems, Germany). The blood sample was obtained with the written informed consent of the donor to participate in this study. The ethics committee (Ethik-Kommission der Medizinischen Fakultät und am Universitätsklinikum Tuebingen) state that an ethical statement is not mandatory when the researchers use their own blood/plasma for experiments. The german statutes and the Declaration of Helsinki are not aimed at experiments using samples provided by the principal investigator him or herself. In the opinion of the committee, the Declaration of Helsinki is designed to protect the patient’s interests and to avoid abuse of the patient’s material.

The target in a further series is p38α MAPK (Homo sapiens, UniProt Q16539). Put plainly: Biochemical p38 MAPK activity assay (BAA), ELISA of ATF-2 phosphorylation. The protocol: Kinase activity assays were used for identification of p38α MAPK and JNK3 inhibitors. The experimental settings and screening procedures are previously described by Goettert et al., [28].
Briefly, the ELISA assay was performed using 96-well plates (MaxiSorp, NUNC, Germany) by measuring the activity of p38α MAPK after incubation with a candidate inhibitor. Therefore, the phosphorylation degree of activation transcription factor 2 (ATF-2) is detected by a monoclonal peroxidase conjugated antibody in a dilution of 1∶5000 (Sigma-Aldrich, Germany). This monoclonal anti-phospho-ATF-2 (Thr69/71) peroxidase-conjugated antibody reacts specifically with dually phosphorylated ATF-2, detecting neither the mono- nor the unphosphorylated kinase substrate. ATF- 2 is a natural substrate of the p38 MAPKs and JNK3, and its phosphorylation is inversely correlated with the inhibitor potency.
A general note: ELISA stands for enzyme-linked immunosorbent assay.

Another series deals with T1, p38 MAPK (Homo sapiens, UniProt Q16539).
T1 construct: endogenous in cells; host or cells: U2OS-MK2-EGFP-clone-RA#2
Put plainly: MK2-EGFP translocation assay (High Content Analysis). The class given is cell-based. As to conditions: for nuc/cyt ratio at 15 nM ± SD: 15 nM compound, activated U2OS MK2-EGFP cells, N = 3; for potency towards p38 inhibition in the translocation screen: 1.5 µM, 150 nM, 15 nM, normalized to Skepinone-L. The protocol: Screening was performed in biological duplicates on different days and different cell line passages. For cellular screening ∼ 12.500 cells were seeded into 96-well clear tissue-culture micro-plates (Bio-One µClear, Greiner, Germany) and grown until 90% confluence. The Rac/p38 MAPK pathway was activated by exchanging normal growth media with hyperosmotic media. […] Plates were mixed thoroughly and incubated at 37°C and 5% CO2 in a humidified chamber atmosphere. After 80–90 minutes the treatment was stopped by disposing the media. Subsequently cell were fixed using 3% PFA/PBS in 1x PBS at pH 7.4 for 15 minutes and washed with PBS and PBST (0.05% Tween-20) following nuclear DNA staining using 150 ng/mL DAPI in 1xPBS/35 µg/mL RNAseA. Finally, plates were transferred in an automated cytomat incubator (Thermo Scientific, Germany) combined with a robotic plate handling device (PAA, UK) and subjected to automated image acquisition.
Images of EGFP and DAPI fluorescent cells were acquired using an Image Xpress micro XL microscope (Molecular Devices, Germany). […] On average 400 cells per well were imaged, allowing reliable statistical measures and quantification.
Automated image analysis was carried out using the MetaXpress software (Molecular Devices, Germany). Fluorescence intensity ratios were calculated using the average of the cellular MK2-EGFP fluorescence intensity (Cell: nuclear inner/outer mean intensity) of all images/sites per well. p38 activation was defined as positive when the nucleocytoplasmic MK2-fluorescence intensity ratio was below 0.7. For further analysis, the average of the mean of the entire plate was calculated and used for internal plate normalization. For quality assessment of the screening the Log-Z-score was determined. Obtained values were calculated on the normalized nucleocytoplasmic MK2-fluorescence intensity ratio (average of the mean) of respective data-points.
Image analysis and result calculations were performed as described.

The test system of another series is JNK. Details: method as in PMID 11717429. The following applies: cited from earlier work.
A further series has as its system JNK3. Briefly: Phospho-Ser63-c-Jun/JNK assay in U2OS MK2-EGFP cells. As to conditions: phospho-c-Jun Ser-63 endpoint, multiplexed with MK2-EGFP assay. In kind it is cell-based, human.
The next series concerns U2OS MK2-EGFP cells. Briefly: Cellular viability assay (AlamarBlue). In kind it is cell-based, human. As to conditions: 24 h, 15 nM–15 µM. The protocol:
The cellular viability assay was performed according to standard procedures (for details see AlamarBlue manual #DAL1100, Life Technologies, Germany). Briefly, ∼ 15.000 cells of the U2OS MK2-EGFP clone-RA#2 cell line were plated in 96 well µclear plate and grown in growth media until sub-confluency. Subsequently, cells were treated with compounds in indicated concentrations for 24 h at 37°C in a humidified chamber containing 5% CO2. After compound treatment the amount of living cells was monitored microscopically and cell-viability was determined using the AlamarBlue assay. For this purpose, resazurin was added freshly to the growth media devoid of phenol red as described. The media premixed with the resazurin substrate was pre-warmed to 37°C and 200 µL were added to the pre-treated cells in the 96-well plate. Following incubation at 37°C, 5% CO2 for 4 h the fluorescence of the media was measured in a PHERAstar photometer (BMG Labtech, USA) with the filter sets: Ex: 540nm/Em: 580nm.
In general terms: Alamar Blue is a resazurin reagent that responds to reducing activity.

[2] abbreviates: inhibition of phosphorylation of ATF2, N = 3, read-out: BAA p38 IC50 ± SD.

p38α MAPK, sequence (Q16539 whole entry): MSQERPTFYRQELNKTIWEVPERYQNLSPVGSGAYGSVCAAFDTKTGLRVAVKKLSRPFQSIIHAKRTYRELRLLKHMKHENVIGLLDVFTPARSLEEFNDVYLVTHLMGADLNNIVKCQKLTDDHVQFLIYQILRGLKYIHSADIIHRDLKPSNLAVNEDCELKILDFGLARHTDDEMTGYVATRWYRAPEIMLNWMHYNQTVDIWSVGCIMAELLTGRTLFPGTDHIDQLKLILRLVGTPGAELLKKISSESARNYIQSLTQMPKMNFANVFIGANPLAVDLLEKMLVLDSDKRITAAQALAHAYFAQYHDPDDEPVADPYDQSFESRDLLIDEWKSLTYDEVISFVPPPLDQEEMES
T1 sequence (Q16539 whole entry): as above
Protocol for JNK3: Compound specificity towards p38 and JNK were analyzed in a secondary JNK activity assay detecting phosphorylated c-Jun (Ser63) as a substrate of JNK. This assay could be easily multiplexed with the MK2-EGFP assay as described by Henriksen et al. [31]. Briefly, stimulated U2OS-MK2-EGFP-clone-RA#2 cells were fixed in 96-well plates with 4% PFA/PBS, blocked and permeabilized with protein-free blocking media (Pierce, USA) in TBS with 0.1% Triton X-100. Samples were incubated overnight at 4°C with an antibody directed against phospho-c-Jun Ser63 (#9261, Cell Signaling Technology, USA) diluted 1∶150 in TBST followed by detection with an Alexa647-goat-α-rabbit (Life Technologies, Germany). After washing procedures cells were subjected to image acquisition and automated image-analysis as described.

With `CC(C)Nc1cc(-c2[nH]c(SCCO)nc2-c2ccc(F)cc2)ccn1` [LN957], the pIC50 in series [1] was 6.89; on p38α MAPK (setting [2]) it was 8.52. In addition, the “nuc/cyt ratio at 15 nM ± SD” value at p38 MAPK is 1,158±0,0756.

For the compound `CC(C)Nc1cc(-c2[nH]c(SC[C@H](O)CO)nc2-c2ccc(F)cc2)ccn1` [LN954], the pIC50 in series [1] is 6.74; at p38α MAPK (read-out: BAA p38 IC50 ± SD), 8.24. Besides, the “nuc/cyt ratio at 15 nM ± SD” value on p38 MAPK was 1,068±0,0406.

On to `CNC(=O)c1ccc2c(c1)C(=O)c1ccc(Nc3ccc(F)cc3F)cc1CC2` [LN1496], for which the figures for the pIC50 (in series [1]; at p38α MAPK (read-out: BAA p38 IC50 ± SD)) were 7.43 and 8.49, respectively. Also, the “nuc/cyt ratio at 15 nM ± SD” value on p38 MAPK is reported as 1,088±0,0231.

Consider `O=C(Nc1cc(Nc2ccc3c(c2)CCc2ccc(OCCN4CCOCC4)cc2C3=O)ccc1F)c1ccoc1` [LN1311], for which the pIC50 in series [1] is 6.97; on p38α MAPK (read-out: BAA p38 IC50 ± SD) it was 8.96. For the same compound, the “nuc/cyt ratio at 15 nM ± SD” value on p38 MAPK was 1,088±0,0781.

Take `O=C(Nc1cc(Nc2ccc3c(c2)CCc2ccc(OCCN4CCOCC4)cc2C3=O)c(F)cc1F)c1ccsc1` [LN1637]: the pIC50 was 8.22 in series [1]; 9.30 on p38α MAPK (setting [2]); 8.30 on p38α MAPK (summary of Table 1, read-out: BAA, IC50). On p38 MAPK, the “nuc/cyt ratio at 15 nM ± SD” value is 1,206±0,0326.

As to `O=C(Nc1cc(Nc2ccc3c(c2)CCc2ccc(OCCN4CCOCC4)cc2C3=O)c(F)cc1F)c1ccccc1` [LN1503], the pIC50 in series [1] is 6.66; on p38α MAPK (read-out: BAA p38 IC50 ± SD), 8.89. Further, the “nuc/cyt ratio at 15 nM ± SD” value at p38 MAPK is listed as 1,057±0,0332.

For the compound `Oc1c2ccccc2c2c3c(cccc13)N=N2` [SP600125], the “selectivity over p38” value in the series on JNK is listed as 300 fold. In addition, in the series with JNK3, the “inhibition of p38 and JNK3 (selectivity)” value is recorded as “Selective inhibition of JNK3 activity”.

With `Nc1ccccc1Nc1ccc2c(c1)CCc1ccc(OC[C@H](O)CO)cc1C2=O` [LN809], the pIC50 in series [1] was 7.33; at p38α MAPK (read-out: BAA p38 IC50 ± SD), 8.00. The “nuc/cyt ratio at 15 nM ± SD” value at p38 MAPK is on record as 1,064±0,1062.

For the compound `CC(C)C(C)Nc1cc(-c2[nH]c(SCCCO)nc2-c2ccc(F)cc2)ccn1` (stereo not shown) [LN949], the pIC50 was 6.76 in series [1] and 7.93 on p38α MAPK (read-out: BAA p38 IC50 ± SD). In addition, the “nuc/cyt ratio at 15 nM ± SD” value on p38 MAPK was 1,111±0,0012.

`O=C(NCC(O)CO)c1ccc2c(c1)C(=O)c1ccc(Nc3cc(NC(=O)c4ccsc4)c(F)cc3F)cc1CC2` (stereo not shown) [LN1878]: the pIC50 at p38α MAPK (read-out: BAA p38 IC50 ± SD) is 8.72. Also, the “nuc/cyt ratio at 15 nM ± SD” value on p38 MAPK is 1,211±0,1416.

For `CC(C)Sc1nc(-c2ccc(F)cc2)c(-c2ccnc(NC3CCOCC3)c2)[nH]1` [RN4296], the pIC50 at p38α MAPK (read-out: BAA p38 IC50 ± SD) was 8.43. Moreover, at p38 MAPK, the “nuc/cyt ratio at 15 nM ± SD” value was 1,288±0,2483 and the “potency towards p38 inhibition in the translocation screen” value is “most potent compound towards p38 inhibition”.

For `O=C1c2ccc(Nc3ccc(F)cc3F)cc2CCc2ccc(OC[C@H](O)CO)cc21` [Skepinone-L, reference compound], the pIC50 in series [1] is 7.23. In addition, the “cytotoxic effects / cellular viability” value in the series on U2OS MK2-EGFP cells is “do not affect cellular viability”. Further, the “cellular effectiveness in log-dilution experiments” value on p38 MAPK (0 µM –100 µM, living cells) is given as “inhibits p38 from 10 nM –1 µM in living cells”. In addition, the “potency towards p38 inhibition in the translocation screen” value on p38 MAPK was “outstanding potency”. Moreover, the “effect on nuclear export of MK2-EGFP” value on p38 MAPK (10 µM compound) is “abolishes nuclear export of MK2-EGFP”.
